Patent EP3421037A1, “RLS TREATMENT WITH INHIBITORS OF THE CEREBLON (CRBN) PROTEIN” (Klinikum rechts der Isar der Technischen Universität München, priority 2017, dated 2019)

Test system: RLS patient
Assay: Treatment of one RLS patient with thalidomide; RLS severity and sleep disturbance observed weekly with four questionnaires
Format: in vivo, human
Details: for IRLSSG severity: 100 mg thalidomide daily plus two tablets pramipexole 0.18 mg, scale 0 to 40; for ESS sleepiness: Epworth Sleepiness Scale 0 to 24; for MOS sleep disturbance: range 0-100%; for RLS-6 score: scale 0 to 10
Description: The patient had been diagnosed with RLS but had suffered from the disease since childhood. They had family history of RLS with their parent and two siblings being affected.
The patient was washed off the concurrent medication, with the exception of two tablets of 0.18 mg pramipexole, which was maintained throughout the study.
After the baseline period, they were prescribed 100 mg of the inhibitor of the cereblon (CRBN) thalidomide (i.e. 2-(2,6-dioxopiperidin-3-yl)-2,3-dihydro-1H-isoindole-1,3-dione) daily, which they continued taking for three weeks in addition to their two tables pramipexol 0,18 mg treatment.
Throughout the six-week period, the RLS severity and sleep disturbance of the patient were weekly observed with four different questionnaires: • 1. IRLSSG severity scale: This is the gold standard questionnaire to evaluate RLS severity both in clinical practice and in pharmaceutical studies. The scale is based on 10 questions answered by the patient, and final severity score ranges from 0 to 40. On the IRLSSG scale, 0 points corresponds to no RLS, 1-10 points corresponds to mild RLS, 11-20 points corresponds to moderate RLS, 21-30 points corresponds to severe RLS and 31-40 points corresponds to very severe RLS. • 2. RLS-6 scale. This is an alternative scale used to evaluate different aspects of RLS. The average score may be used to evaluate the overall severity of RLS. The scale ranges from 0 to 10, with 0 indicating no RLS and 10 being the most severe RLS severity score. • 3. Epworth Sleepiness Scale (ESS). This is a gold standard questionnaire used to evaluate daytime sleepiness in clinical practice and in pharmaceutical studies. The scale ranges from 0 to 24, where 0-5 corresponds to normal daytime sleepiness, 6-10 corresponds to higher normal daytime sleepiness, 11-12 corresponds to mild excessive daytime sleepiness, 13-15 corresponds to moderate excessive daytime sleepiness and 16-24 corresponds to severe daytime sleepiness. • 4. MOS Sleep Scale. This is a questionnaire used to evaluate sleep disturbance, sleep efficiency, sleep adequacy and other related parameters with different subscores derived from the answers. In this study, the sleep disturbance score was used. The range is 0-100%, 100% indicating the most severe sleep disturbance.

[1] = week 4, 100 mg thalidomide daily plus pramipexole
[2] = week 5, 100 mg thalidomide daily plus pramipexole
[3] = week 6, 100 mg thalidomide daily plus pramipexole

## O=C1CCC(N2C(=O)c3ccccc3C2=O)C(=O)N1 (stereo not shown) [Thalidomide, 2-(2,6-dioxopiperidin-3-yl)-2,3-dihydro-1H-isoindole-1,3-dione]
Week 4 (first treatment week)
  IRLSSG severity: 21 points
[1]
  ESS sleepiness: 4
  MOS sleep disturbance: 31.3%
  RLS-6 score: 4.7
Week 5 (second treatment week)
  IRLSSG severity: 20 points
[2]
  ESS sleepiness: 7
  MOS sleep disturbance: 46.3%
  RLS-6 score: 2.7
Week 6 (third treatment week)
  IRLSSG severity: 16 points
[3]
  ESS sleepiness: 3
  MOS sleep disturbance: 43.8%
  RLS-6 score: 2
Weeks 4-6, 100 mg thalidomide daily plus pramipexole, compared with baseline weeks 1-3
  treatment success of RLS on all four measured scores: significantly benefitted
